The source of these data is ChEMBL document CHEMBL3414484, “Novel imidazole derivatives as heme oxygenase-1 (HO-1) and heme oxygenase-2 (HO-2) inhibitors and their cytotoxic activity in human-derived cancer cell lines” (Eur J Med Chem, 2015).

In general, IC50 refers to the concentration that inhibits the measured activity by half.

One experiment addresses T1, Heme oxygenase 2 (Rattus norvegicus, UniProt P23711).
T1 sequence (P23711 whole entry): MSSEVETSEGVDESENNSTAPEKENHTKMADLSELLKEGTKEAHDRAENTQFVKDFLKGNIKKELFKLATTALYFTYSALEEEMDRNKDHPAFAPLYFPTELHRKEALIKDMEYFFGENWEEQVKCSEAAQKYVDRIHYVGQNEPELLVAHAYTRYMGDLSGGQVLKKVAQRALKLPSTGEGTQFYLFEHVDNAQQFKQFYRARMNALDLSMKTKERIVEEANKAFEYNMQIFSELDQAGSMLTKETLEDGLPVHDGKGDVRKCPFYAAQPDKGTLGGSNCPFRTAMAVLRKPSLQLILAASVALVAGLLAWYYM
The experiment is described as follows: Inhibition of HO2 in Sprague-Dawley rat brain microsomal fraction assessed as reduction in bilirubin formation incubated for 60 mins by double beam spectrophotometry.

A further experiment concerns the target T2, Heme oxygenase 1 (Rattus norvegicus, UniProt P06762).
T2 sequence (P06762 whole entry): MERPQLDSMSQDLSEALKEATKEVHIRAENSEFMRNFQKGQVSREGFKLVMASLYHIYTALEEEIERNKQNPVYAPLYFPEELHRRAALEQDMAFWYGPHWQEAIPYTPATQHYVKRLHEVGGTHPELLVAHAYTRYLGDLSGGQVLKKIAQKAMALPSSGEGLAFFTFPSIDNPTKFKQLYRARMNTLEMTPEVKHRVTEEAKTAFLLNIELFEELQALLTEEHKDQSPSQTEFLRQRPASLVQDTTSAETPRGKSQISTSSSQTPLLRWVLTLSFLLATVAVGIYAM
The experiment in a line: Inhibition of HO1 in Sprague-Dawley rat spleen microsomal fraction assessed as reduction in bilirubin formation incubated for 60 mins by double beam spectrophotometry. Type of experiment: microsomes.

For experiment [1], the system named is MDCK. The experiment in a line: Selectivity index, ratio of IC50 for MDCK cells to IC50 human PC3 cells.
In experiment [2] the test system is DU-145. The experiment is described as follows: Cytotoxicity against human DU145 cells incubated for 72 hrs by sulforhodamine B assay. Type of experiment: functional, cell-based. To be noted: DU-145, 72 h.
For experiment [3], the system named is LNCaP. The experiment is described as follows: Cytotoxicity against human LNCAP cells incubated for 72 hrs by sulforhodamine B assay. Type of experiment: functional, cell-based. (Sulforhodamine B stains cellular protein and so reports cell mass.)
The subject of experiment [4] is MDCK. The experiment is described as follows: Selectivity index, ratio of IC50 for MDCK cells to IC50 human MDA-MB-231 cells.
The test system of experiment [5] is MDCK. The experiment is described as follows: Cytotoxicity against MDCK cells incubated for 72 hrs by sulforhodamine B assay. Type of experiment: cell-based. To be noted: Canis lupus familiaris.
Experiment [6] relates to DU-145. The experiment in a line: Selectivity index, ratio of IC50 for MDCK cells to IC50 human DU145 cells.
For experiment [7], the system named is LNCaP. The experiment is described as follows: Selectivity index, ratio of IC50 for MDCK cells to IC50 human LNCAP cells.
The subject of another experiment is MCF7. The experiment is described as follows: Cytotoxicity against human MCF7 cells incubated for 72 hrs by sulforhodamine B assay. Type of experiment: functional, cell-based. To be noted: MCF7, 72 h.
In a further experiment the test system is MDA-MB-231. The experiment is described as follows: Cytotoxicity against human MDA-MB-231 cells incubated for 72 hrs by sulforhodamine B assay. To be noted: MDA-MB-231, 72 h. Type of experiment: functional, cell-based.
Experiment [8] can be described thus: Cytotoxicity against human PC3 cells incubated for 72 hrs by sulforhodamine B assay. Type of experiment: functional, cell-based. To be noted: PC-3, 72 h.
The test system of experiment [9] is MDCK. The experiment in a line: Selectivity index, ratio of IC50 for MDCK cells to IC50 human MCF7 cells.

In the case of `Brc1cccc(OCCCCCn2ccnc2)c1`, the IC50 came to 0.9 µM on Heme oxygenase 2 and 42.6 µM at Heme oxygenase 1.
As to `c1ccc2oc(SCCCn3ccnc3)nc2c1`, the IC50 was 49 µM on Heme oxygenase 2 and 16.9 µM on Heme oxygenase 1.
In the same order, the values of `Brc1cccc(OCCCCCCn2ccnc2)c1` are 41 µM and 34 µM.
Turning to `Brc1cccc(OCCCCn2cncn2)c1`, the IC50 at Heme oxygenase 2 worked out at 11.2 µM.
For `Ic1ccc(OCCCCn2ccnc2)cc1`, the “Ratio IC50” value with MDCK [1], in the experiment on MDCK [4], in the experiment on DU-145 [6], with LNCaP [7] and with MDCK [9] was 2 each time. Besides, the IC50 in the experiment on DU-145 [2] turned out to be 54.9 µM; with LNCaP [3], 16.9 µM; with MDCK [5], 103 µM; with MCF7, 27.7 µM; with MDA-MB-231, 55.1 µM; in [8] it was 82.5 µM.
For `O=[N+]([O-])c1ccc(OCCCn2ccnc2)cc1`, the IC50 at Heme oxygenase 2 worked out at 77.6 µM.
The same measure, in the same setting: for `Ic1ccc(OCCCn2ccnc2)cc1` the value was 36.3 µM.
Turning to `c1ccc2sc(SCCCCCn3ccnc3)nc2c1`, the IC50 was 11.2 µM on Heme oxygenase 2 and 39.8 µM at Heme oxygenase 1.
For the compound `c1ccc(OCCCn2cncn2)cc1`, the IC50 on Heme oxygenase 2 is over 100 µM.
In the case of `Brc1cccc(OCCCCCn2cncn2)c1`, the values for the IC50 at Heme oxygenase 2 and at Heme oxygenase 1 were 0.8 µM and 20 µM, respectively.
As for `O=[N+]([O-])c1ccc(OCCCn2cncn2)cc1`, the IC50 at Heme oxygenase 2 was determined as 44.7 µM.
In the case of `c1ccc2sc(SCCCn3ccnc3)nc2c1`, the “Ratio IC50” value in the experiment with MDCK [1], in the experiment on MDCK [4], in the experiment with DU-145 [6], in the experiment on LNCaP [7] and in the experiment on MDCK [9] was 2 in each case. Further, the IC50 turned out to be 54.8 µM in the experiment on DU-145 [2]; 55 µM in the experiment on LNCaP [3]; 82.4 µM in the experiment on MDCK [5]; 12.5 µM at Heme oxygenase 2; 27.5 µM with MCF7; 55.1 µM with MDA-MB-231. Moreover, the IC50 was determined as 82.6 µM in [8] and 0.9 µM at Heme oxygenase 1.
As to `Ic1ccc(OCCCCCn2ccnc2)cc1`, the “Ratio IC50” value in the experiment with MDCK [1], in the experiment with MDCK [4], in the experiment with DU-145 [6], with LNCaP [7] and with MDCK [9] was 2 in each case. For the same compound, the IC50 turned out to be 27.7 µM in the experiment on DU-145 [2]; 27.8 µM with LNCaP [3]; 55.1 µM in the experiment on MDCK [5]; 0.9 µM on Heme oxygenase 2; 11 µM in the experiment with MCF7; 27.4 µM with MDA-MB-231. Also, the half-inhibitory concentration (IC50) in [8] came out at 27.6 µM; on Heme oxygenase 1 it was 44 µM.
As for `O=c1oc2ccccc2n1CCCCn1ccnc1`, the values for the IC50 at Heme oxygenase 2 and at Heme oxygenase 1 were 35.5 µM and 17.7 µM, respectively.
Regarding `Brc1cccc(OCCCCn2ccnc2)c1`, the “Ratio IC50” value in the experiment with MDCK [1], in the experiment on MDCK [4], with DU-145 [6], in the experiment on LNCaP [7] and in the experiment with MDCK [9] was 2 in each case. The IC50 in the experiment with DU-145 [2] amounted to 46.6 µM; in the experiment with LNCaP [3], 27.6 µM; with MDCK [5], 82.4 µM; with MCF7, 27.6 µM; in the experiment on MDA-MB-231, 27.5 µM; in experiment [8], 54.9 µM.
Turning to `c1ccc2sc(SCCCCn3ccnc3)nc2c1`, the “Ratio IC50” value in the experiment on MDCK [1], in the experiment on MDCK [4], with DU-145 [6], with LNCaP [7] and with MDCK [9] was 2 each time. The IC50 stood at 82.2 µM in the experiment with DU-145 [2]; 54.7 µM in the experiment with LNCaP [3]; 58.5 µM in the experiment with MDCK [5]; 0.8 µM on Heme oxygenase 2; 27.5 µM in the experiment on MCF7; 55.1 µM with MDA-MB-231. Further, the IC50 in [8] turned out to be 82.5 µM; on Heme oxygenase 1, 1 µM.
With `Clc1ccc2sc(SCCCCn3ccnc3)nc2c1`, the IC50 on Heme oxygenase 2 is 0.9 µM; at Heme oxygenase 1, over 100 µM.
For `Ic1ccc(OCCCCCCn2ccnc2)cc1` the same measures were over 100 µM and 42 µM.
In the same order, the values of `c1ccc2oc(SCCCCn3ccnc3)nc2c1` are 74.1 µM and 30.9 µM.
On to `O=[N+]([O-])c1ccc(OCCCCn2cncn2)cc1`, for which the IC50 at Heme oxygenase 2 came to 41.7 µM.
With `Clc1ccc2sc(SCCCn3ccnc3)nc2c1`, the IC50 is 0.9 µM on Heme oxygenase 2 and 18.4 µM at Heme oxygenase 1.
For the compound `Brc1cccc(OCCCn2cncn2)c1`, the IC50 on Heme oxygenase 2 amounted to 33.9 µM.
As for `Clc1ccc2sc(SCCCCCn3ccnc3)nc2c1`, the IC50 amounted to 0.9 µM at Heme oxygenase 2 and 36.3 µM on Heme oxygenase 1.
For `O=c1sc2ccccc2n1CCCn1ccnc1` the same measures were 28.8 µM and 16.6 µM.
